# Data from patent publication US5155108A, “Imidazopyridazines and use as antiasthmatic agents” (Takeda Chemical Industries, Ltd., priority 1990, dated 1992).
# System: bronchoconstriction induced by PAF
# Assay: Effect on bronchoconstriction induced by platelet activating factor (PAF) in guinea pigs (Konzett-Rossler method)
# Type: in vivo, guinea pig (male Hartley)
# Conditions: Cavia porcellus, po, 30 mg/kg orally 1 hour before PAF (1 μg/kg i.v.), suspended in 5% gum arabic, recorded for 15 minutes, male Hartley guinea pigs
# Procedure: Effect On bronchoconstriction Induced By Platelet Activating Factor (PAF) In Guinea Pigs
# Male Hartley guinea pigs (body weight 500 g) were used. The bronchoconstriction reaction in the guinea pig which has intravenously received PAF (1 μg/Kg) was measured by the Konzett-Rossler method. The trachea of the guinea pig with its back fixed was incised under anesthesia condition with urethane (intraperitoneal injection, 1.50 g/kg) and connected with an artificial respirator via a cannula. The branch of the tracheal cannula was connected with a transducer (7020 type, Ugobasile). Air was sent to the trachea at the volume of 3-7 ml/stroke, at the rate of 70 strokes/min. at load pressure of 10 cm H2 O to lung and overflowed air volume was recorded with Rectegraph (Recte-Hori-8s, Sanei Sokuki) via the transducer. After the guinea pig was treated with gallamine (1 mg/kg, i.v.), PAF (1 μg/kg) dissolved in a physiological saline solution was administered to the guinea pig via a jugular venous cannula and the bronchoconstriction reaction induced thereby was recorded for 15 minutes. The drug (30 mg/kg) suspended in a 5% gum arabic solution was administered orally 1 hour before the injection of PAF.
row,Compound,inhibition in vivo at 30 mg/kg [%]
1,O=S(=O)(CCCSc1ccc2nccn2n1)NCCc1cccnc1 [Example 19],41
2,"NS(=O)(=O)CCCSc1ccc2nccn2n1 [Example 1, 6-(3-sulfamoylpropylthio)imidazo [1,2-b]pyridazine]",71
3,"O=S(=O)(CCSc1ccc2nccn2n1)NC1CC1 [Example 25, 6-[2-(N-cyclopropylsulfamoyl)ethylthio] imidazo[1,2-b]pyridazine]",47
4,"NS(=O)(=O)CCCCCSc1ccc2nccn2n1 [Example 29, 6-(5-sulfamoylpentylthio)imidazo[1,2-b]pyridazine]",51
5,Cn1cccc1CCNS(=O)(=O)CCCSc1ccc2nccn2n1 [Example 20],41
6,"C[C@@H](CSc1ccc2nccn2n1)CS(N)(=O)=O [Example 35, (+)-6-[(2-(S)-methyl-3-sulfamoylpropyl)thio]imidazo[1,2-b]pyridazine]",79
7,NS(=O)(=O)CCCOc1ccc2nccn2n1 [Example 41],66
8,"CC(C)(COc1ccc2ncc(Cl)n2n1)CS(N)(=O)=O [Example 45, 3-chloro-6-[(2,2-dimethyl-3-sulfamoylpropyl)oxy]imidazo[1,2-b]pyridazine]",50
9,CN(C)S(=O)(=O)CCCSc1ccc2nccn2n1 [Example 9],52
10,NS(=O)(=O)CCSc1ccc2nccn2n1 [Example 26],42
11,"CCC(CC)(COc1ccc2nccn2n1)CS(N)(=O)=O [Example 47, 6-[(2,2-diethyl-3-sulfamoylpropyl)oxy]imidazo[1,2-b]pyridazine]",90
12,CCC(COc1ccc2nccn2n1)CS(N)(=O)=O (stereo not drawn) [Example 42],55
13,"CC(C)(CSc1ccc2nccn2n1)CS(N)(=O)=O [Example 37, 6-[(3-sulfamoyl-2,2-dimethylpropyl)thio]imidazo[1,2-b]pyridazine]",99
14,"NS(=O)(=O)CCCSc1ccc2ncc(Cl)n2n1 [Example 43, 3-chloro-6[(3-sulfamoylpropyl)thio]imidazo[1,2-b]pyridazine]",54
15,NS(=O)(=O)CCCCSc1ccc2nccn2n1 [Example 30],73
16,CC(CSc1ccc2nccn2n1)CS(N)(=O)=O (stereo not drawn) [Example 31],74
17,"CC(C)(COc1ccc2nccn2n1)CS(N)(=O)=O [Example 39, 6-[(2,2-dimethyl-3-sulfamoylpropyl)oxy]imidazo[1,2-b]pyridazine]",72
18,CCC(CSc1ccc2nccn2n1)CS(N)(=O)=O (stereo not drawn) [Example 32],80
19,NS(=O)(=O)CCC(Sc1ccc2nccn2n1)c1ccccc1 (stereo not drawn) [Example 34],38
20,"C[C@H](COc1ccc2nccn2n1)CS(N)(=O)=O [Example 40, (+)-6-[(2-(R)-methyl-3-sulfamoylpropyl)oxy]imidazo[1,2-b]pyridazine]",53
21,NS(=O)(=O)CC(CSc1ccc2nccn2n1)c1ccccc1 (stereo not drawn) [Example 33],52
